Biological target: α-glucosidase
Test: pNPG hydrolysis, absorbance at […] nm, commercial enzyme
Format: biochemical

| IC50 [µM] | Compound |
| --- | --- |
| 532 | O=c1cc(-c2ccc(O)cc2)oc2cc(O[C@@H]3O[C@H](CO)[C@@H](O)[C@H](O)[C@H]3O)cc(O)c12 [AG, apigenin-7-O-β-(6″-O)-D-glucoside] |
| 485 | O=C(O)CCC(=O)OC[C@H]1O[C@@H](Oc2cc(O)c3c(=O)cc(-c4ccc(O)cc4)oc3c2)[C@H](O)[C@@H](O)[C@@H]1O [SAG, apigenin-7-O-β-(6″-O-succinyl)-D-glucoside] |

| Compound | IC50 [µM] |
| --- | --- |
| O=c1cc(-c2ccc(O)cc2)oc2cc(O)cc(O)c12 [Apigenin] | 525 |

— paper PMC9866095, “Efficient Synthesis and In Vitro Hypoglycemic Activity of Rare Apigenin Glycosylation Derivatives” (Molecules, 2023)
